Type in all cases: biochemical
For experiment [1], the target named is MELK (Homo sapiens (Human), UniProt Q14680). In words: MELK p81-based kinase assay, dose-response (IC50/Ki). The settings on record: for IC50: 40 μM ATP. As to the method:
MELK and its substrate, Bcl-G were both recombinantly expressed and purified for use in screening assays (See Methods). […] 10 nM MELK 340 and 10 μM Bcl-GL in kinase assay buffer (50 mM HEPES pH 7.5, 100 mM KCl, 0.1 mM EDTA, 0.1 mM EGTA, 10 mM MgCl2, 10 μg/mL BSA) with 10 mM DTT were added to either 10 μM or 1 μM inhibitor aliquoted into 96 well plates (final 1% DMSO). The mixture was incubated at room temperature for 30 minutes prior to initiation of the assay with 40 μM γ-^32P-ATP (100-1000 CPM/pmol). 40 μL aliquots were spotted onto a p81 96 well filter plate (Unifilter, Whatman), quenched, and washed with 75 mM O-phosphoric acid 8 times, followed by a final wash with acetone for drying. Wells were then filled with scintillation fluid, sealed, and quantified using a MicroBeta TriLux liquid scintillation counter (PerkinElmer). Each inhibitor plate was assayed in duplicate, with at least 4 wells without MELK to establish background and at least 4 wells without inhibitor as a negative control. All readings were corrected for background signal based on the average counts from the wells without enzyme. Percent inhibition, defined as [100−(CPM+inhibitor/average CPM of positive controls)*100], was determined first at 10 μM inhibitor. The top 50 inhibitors were then re-screened in duplicate at 1 μM.
At set time points (0.25, 0.5, 1, 1.5, and 2 min for assays containing 10 nM MELK and 1, 2, 4, 6, and 10 min for assays containing 1 nM MELK), 30 μL aliquots were taken from each reaction and spotted onto 2×2 cm squares of p81 paper. Papers were washed 4 times in 75 mM O-phosphoric acid and once in acetone. Labeled protein was quantified by its associated CPM determined on a Packard 1500 scintillation counter at a sigma value of 2. CPM were translated into nmol ^32P incorporated using Equation 1.
Rates in the presence of each concentration of inhibitor were determined by plotting nmol ^32P incorporated vs. time. These rates were normalized to rates obtained without inhibitor, and data were plotted in terms of fractional activity. In most cases, data were fit to Equation 2. If the IC50 approached the amount of enzyme used in the assay, data were re-fit to the equation for tight-binding inhibitors (the Morrison equation, […]). […] Data were transformed as discussed and fit to Equation 3.
IC50 values were used to estimate each inhibitor's Ki using the Cheng-Prusoff relationship for competitive inhibitors (Equation 4).

The target of experiment [2] is AMPK (Rattus norvegicus (Rat), UniProt P54645). In words: Selectivity dose-response kinase assay, AMPK. The following applies: 100 μM ATP. The text has this:
(§1) CHK1 and NUAK1 were purchased from SignalChem (Vancouver, BC). The NUAK2, CHK, and SAMS peptides were purchased from BioSyn (Lewisville, Tex.). The sequence of CHK and NUAK2 peptides are described elsewhere (Sanchez Y, et al. Science (New York, N.Y.). 1997; 277(5331):1497-1501; Scott J W, et al. Sci Rep. 2015; 5:14436). ERK2, AMPK, CAMKK2, and Ets1 were produced in house as previously described (Waas W F, Dalby K N. The Journal of biological chemistry. 2002; 277(15):12532-12540; Neumann D, et al. Protein Expr Purif. 2003; 30(2):230-237; Waas W F, Dalby K N. Protein Expr Purif. 2001; 23(1):191-197). Apparent KM values for ATP under specific assay conditions were determined using respective experimental conditions in Table 8 with varied ATP (0-1.28 mM). All selectivity dose-response assays were performed in kinase assay buffer (see Inhibitor Library Screen) with 2 mM DTT and 100 μM γ-^32P-ATP with additional conditions listed in Table 8. IC50 and KM^ATP values were subsequently used to calculate Ki (Equation 4). Relative selectivity was determined by comparing Ki^Enzyme/Ki^MELK (termed φ in Table 7). […] Standard error from linear regression data was propagated internally in Prism and taken into account in nonlinear regression to determine IC50 or Ki.

Experiment [3] has as its target AMPK. The experiment in a line: Selectivity dose-response kinase assay, AMPK.
From the text: as §1

Experiment [4] addresses NUAK1 (Homo sapiens (Human), UniProt O60285). The experiment in a line: Selectivity dose-response kinase assay, NUAK1. The settings on record: for Ki: 100 μM ATP.
From the text: as §1

Experiment [5] addresses CHK1 (Homo sapiens (Human), UniProt O14757). The experiment in a line: Selectivity dose-response kinase assay, CHK1. The settings on record: for Ki: 100 μM ATP.
From the text: as §1

The target in experiment [6] is CAMKK2 (Homo sapiens (Human), UniProt Q96RR4). In words: Selectivity dose-response kinase assay, CAMKK2. The following applies: for Ki: 100 μM ATP.
From the text: as §1

In experiment [7] the target is ERK2 (Rattus norvegicus (Rat), UniProt P63086). In words: Selectivity dose-response kinase assay, ERK2.
From the text: as §1

[8] abbreviates: Ki calculated using Equation 4, [ATP] = 40 μM, KM app (ATP) = 6 μM, read-out: Ki ± SE.
The mark [9] stands for this setting: indolinone derivatives, read-out: IC50.
Setting [10] is: cross-inhibition of MELK by known kinase inhibitors, read-out: IC50 ± SE.
The mark [11] stands for this setting: fragment and intermediate potency (synthetic intermediates), read-out: Ki ± SD.
[12] abbreviates: Ki calculated using Equation 4, [ATP] = 40 μM, KM app (ATP) = 6 μM.
Setting [13] is: selectivity table, MELK, read-out: Ki.

Structures are written as SMILES. Like-named read-outs stand apart in the source and are kept apart here.

As a reminder, the IC50 is the concentration needed to halve the response being measured.

Chain of MELK (Q14680 1-340): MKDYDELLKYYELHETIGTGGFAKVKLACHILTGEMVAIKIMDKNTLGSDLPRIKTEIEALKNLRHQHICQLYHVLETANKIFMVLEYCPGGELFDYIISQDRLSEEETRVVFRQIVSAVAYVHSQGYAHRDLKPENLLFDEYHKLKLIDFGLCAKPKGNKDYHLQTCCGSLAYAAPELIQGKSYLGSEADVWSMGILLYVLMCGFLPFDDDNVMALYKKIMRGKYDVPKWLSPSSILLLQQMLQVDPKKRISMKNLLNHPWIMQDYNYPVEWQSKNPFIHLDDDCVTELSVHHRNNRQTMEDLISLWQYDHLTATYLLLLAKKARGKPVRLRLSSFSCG
Chain of ERK2 (P63086 whole entry): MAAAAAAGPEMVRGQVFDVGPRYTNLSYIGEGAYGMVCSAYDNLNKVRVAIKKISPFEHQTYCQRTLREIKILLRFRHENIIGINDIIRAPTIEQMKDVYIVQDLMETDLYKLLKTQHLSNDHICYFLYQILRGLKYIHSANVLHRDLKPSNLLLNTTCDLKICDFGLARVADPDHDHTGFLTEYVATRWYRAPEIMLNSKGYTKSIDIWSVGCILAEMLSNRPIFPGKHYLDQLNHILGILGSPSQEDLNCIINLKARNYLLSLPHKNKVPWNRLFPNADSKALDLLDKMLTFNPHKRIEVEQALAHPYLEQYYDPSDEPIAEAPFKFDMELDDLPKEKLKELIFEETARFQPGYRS
Chain of CHK1 (O14757 whole entry): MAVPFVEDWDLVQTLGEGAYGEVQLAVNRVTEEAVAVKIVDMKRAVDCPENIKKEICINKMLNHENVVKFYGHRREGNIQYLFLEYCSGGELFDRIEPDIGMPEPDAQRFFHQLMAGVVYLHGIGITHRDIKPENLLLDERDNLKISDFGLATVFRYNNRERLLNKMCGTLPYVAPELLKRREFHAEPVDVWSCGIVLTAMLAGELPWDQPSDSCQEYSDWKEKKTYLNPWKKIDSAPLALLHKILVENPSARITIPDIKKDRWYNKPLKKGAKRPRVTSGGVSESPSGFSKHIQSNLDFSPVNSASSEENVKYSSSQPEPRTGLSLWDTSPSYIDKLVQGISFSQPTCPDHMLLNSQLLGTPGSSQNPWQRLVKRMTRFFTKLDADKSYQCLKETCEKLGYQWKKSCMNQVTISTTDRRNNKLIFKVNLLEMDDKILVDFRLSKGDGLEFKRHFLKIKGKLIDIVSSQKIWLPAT
Chain of CAMKK2 (Q96RR4 whole entry, species assumed): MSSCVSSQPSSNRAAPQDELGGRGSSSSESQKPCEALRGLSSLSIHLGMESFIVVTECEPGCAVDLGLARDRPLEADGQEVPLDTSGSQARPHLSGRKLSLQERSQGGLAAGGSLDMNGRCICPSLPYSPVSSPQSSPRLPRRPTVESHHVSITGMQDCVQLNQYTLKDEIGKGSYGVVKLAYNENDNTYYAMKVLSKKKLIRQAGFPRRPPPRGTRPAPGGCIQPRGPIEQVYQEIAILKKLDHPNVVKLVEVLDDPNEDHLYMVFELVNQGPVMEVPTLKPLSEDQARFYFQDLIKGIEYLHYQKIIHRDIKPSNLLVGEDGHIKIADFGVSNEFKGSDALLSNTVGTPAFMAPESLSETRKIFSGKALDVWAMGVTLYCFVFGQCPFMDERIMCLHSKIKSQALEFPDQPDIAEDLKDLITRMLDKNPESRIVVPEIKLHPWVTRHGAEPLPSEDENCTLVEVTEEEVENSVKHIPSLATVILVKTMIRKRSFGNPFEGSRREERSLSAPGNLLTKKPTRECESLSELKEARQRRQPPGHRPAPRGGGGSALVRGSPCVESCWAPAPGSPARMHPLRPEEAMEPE
Chain of NUAK1 (O60285 whole entry): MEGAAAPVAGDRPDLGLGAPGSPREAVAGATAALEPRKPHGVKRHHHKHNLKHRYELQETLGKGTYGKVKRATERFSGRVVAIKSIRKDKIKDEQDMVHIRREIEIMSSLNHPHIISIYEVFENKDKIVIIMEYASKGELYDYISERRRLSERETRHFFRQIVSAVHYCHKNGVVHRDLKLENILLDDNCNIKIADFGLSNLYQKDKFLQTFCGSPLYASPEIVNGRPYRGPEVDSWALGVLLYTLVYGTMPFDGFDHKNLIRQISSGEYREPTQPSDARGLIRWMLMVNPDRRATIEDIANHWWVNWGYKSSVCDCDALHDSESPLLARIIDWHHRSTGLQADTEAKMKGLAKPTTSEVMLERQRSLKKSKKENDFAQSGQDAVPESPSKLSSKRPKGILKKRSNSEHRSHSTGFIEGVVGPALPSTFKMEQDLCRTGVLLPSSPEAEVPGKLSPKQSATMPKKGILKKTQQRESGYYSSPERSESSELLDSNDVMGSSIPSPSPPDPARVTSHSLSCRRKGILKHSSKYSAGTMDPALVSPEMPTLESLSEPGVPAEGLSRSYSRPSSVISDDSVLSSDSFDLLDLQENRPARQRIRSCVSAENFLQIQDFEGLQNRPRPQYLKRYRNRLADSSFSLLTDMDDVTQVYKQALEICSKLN
Chain of AMPK (Rattus norvegicus (Rat), UniProt P54645) (P54645 whole entry, looked up): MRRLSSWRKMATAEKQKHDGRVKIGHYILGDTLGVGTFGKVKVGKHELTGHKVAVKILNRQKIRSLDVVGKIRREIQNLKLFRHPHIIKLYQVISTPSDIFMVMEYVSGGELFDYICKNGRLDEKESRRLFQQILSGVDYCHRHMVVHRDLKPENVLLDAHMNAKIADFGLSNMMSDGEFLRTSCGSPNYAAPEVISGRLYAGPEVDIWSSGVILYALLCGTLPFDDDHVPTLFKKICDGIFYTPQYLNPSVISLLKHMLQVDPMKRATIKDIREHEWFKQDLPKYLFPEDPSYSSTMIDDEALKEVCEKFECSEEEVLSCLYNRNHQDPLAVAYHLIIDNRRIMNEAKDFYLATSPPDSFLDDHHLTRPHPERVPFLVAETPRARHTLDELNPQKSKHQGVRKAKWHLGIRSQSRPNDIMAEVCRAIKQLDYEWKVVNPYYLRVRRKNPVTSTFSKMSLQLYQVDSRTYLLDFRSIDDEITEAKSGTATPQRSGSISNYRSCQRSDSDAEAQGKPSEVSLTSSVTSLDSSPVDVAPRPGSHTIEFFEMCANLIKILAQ
Chain of AMPK (Rattus norvegicus (Rat), UniProt P54645) (P80386 whole entry partner, looked up): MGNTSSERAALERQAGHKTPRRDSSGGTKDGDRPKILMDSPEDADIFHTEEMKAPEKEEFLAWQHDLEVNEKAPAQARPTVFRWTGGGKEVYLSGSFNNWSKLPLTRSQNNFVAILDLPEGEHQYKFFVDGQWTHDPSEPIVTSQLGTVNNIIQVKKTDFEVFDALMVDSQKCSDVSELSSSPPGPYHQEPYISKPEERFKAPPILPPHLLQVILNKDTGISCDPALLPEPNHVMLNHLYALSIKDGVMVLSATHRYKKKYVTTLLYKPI
Chain of AMPK (Rattus norvegicus (Rat), UniProt P54645) (P80385 whole entry partner, looked up): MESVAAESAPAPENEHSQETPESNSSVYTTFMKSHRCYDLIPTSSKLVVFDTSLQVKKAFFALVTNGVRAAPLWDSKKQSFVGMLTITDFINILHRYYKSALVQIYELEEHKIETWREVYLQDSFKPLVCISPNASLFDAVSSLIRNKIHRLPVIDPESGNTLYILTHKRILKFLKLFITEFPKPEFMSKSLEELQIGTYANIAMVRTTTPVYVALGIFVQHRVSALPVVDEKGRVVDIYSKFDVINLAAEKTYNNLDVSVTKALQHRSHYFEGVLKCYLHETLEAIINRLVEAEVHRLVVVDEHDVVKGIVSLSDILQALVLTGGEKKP

Consider `CN(C)CCCNC(=O)c1ccc2c(c1)NC(=O)/C2=C(\Nc1ccc(N(C)C(=O)CN2CCN(C)CC2)cc1)c1ccccc1` [Compound 22, (Z)—N-(3-(Dimethylamino)propyl)-3-(((4-(N-methyl-2-(4-methylpiperazin-1-yl)acetamido)phenyl)amino)(phenyl)methylene)-2-oxoindoline-6-carboxamide], for which the Ki in experiment [1] (setting [8]) is 358 ± 71 nM. Moreover, the IC50 in experiment [1] (setting [9]) is 2700 ± 540 nM.

For the molecule `CN1CCN(CC(=O)N(C)c2ccc(N/C(=C3\C(=O)Nc4cc(C(=O)NCCCN)ccc43)c3ccccc3)cc2)CC1` [Compound 23, (Z)—N-(3-Aminopropyl)-3-(((4-(N-methyl-2-(4-methylpiperazin-1-yl)acetamido)phenyl)amino)(phenyl)methylene)-2-oxoindoline-6-carboxamide], in experiment [1] (setting [9]), the IC50 was above 5000 nM.

As for `N=C(N)NCCNS(=O)(=O)c1cccc2cnccc12` [HA-1004, reference compound], in experiment [1] (setting [10]), the concentration for half-maximal inhibition (IC50) worked out at 440 ± 210 nM.

As to `CN1CCN(CC(=O)N(C)c2ccc(N)cc2)CC1` [Compound 14, N-(4-Aminophenyl)-N-methyl-2-(4-methylpiperazin-1-yl)acetamide], the Ki in experiment [1] (setting [11]) was above 5000 nM.

Regarding `CN1CCN(CC(=O)N(C)c2ccc(N/C(=C3\C(=O)Nc4cc(C(=O)O)ccc43)c3ccccc3)cc2)CC1` [Compound 20, (Z)-3-(((4-(N-Methyl-2-(4-methylpiperazin-1-yl)acetamido)phenyl)amino)(phenyl)methylene)-2-oxoindoline-6-carboxylic acid], in experiment [1] (setting [8]), the Ki was 149 ± 22 nM. In addition, the IC50 in experiment [1] (setting [9]) was 1140 ± 168 nM.

For the molecule `CC(C)(C)c1nc2c3ccc(F)cc3c3c(=O)[nH]ccc3c2[nH]1` [Compound 420099, reference compound], in experiment [1] (setting [10]), the IC50 was 330 ± 37 nM.

With `CNC(=O)c1ccc2c(c1)/C(=C(/Nc1ccc(N(C)C(=O)CN3CCN(C)CC3)cc1)c1ccccc1)C(=O)N2` [Compound 24, (Z)—N-Methyl-3-(((4-(N-methyl-2-(4-methylpiperazin-1-yl)acetamido)phenyl)amino)(phenyl)methylene)-2-oxoindoline-5-carboxamide], in experiment [1] (setting [8]), the Ki was 2.3 nM. In experiment [1] (setting [9]), the IC50 is 18 ± 3.8 nM.

As for `CCO/C(=C1\C(=O)N(C(C)=O)c2ccc(C(=O)OC)cc21)c1ccccc1` [Compound 8, Methyl (Z)-1-acetyl-3-(ethoxy(phenyl)methylene)-2-oxoindoline-5-carboxylate], in experiment [1] (setting [11]), the Ki is above 5000 nM.

On to `CN1CCN(CC(=O)N(C)c2ccc(N/C(=C3\C(=O)Nc4ccc(C(=O)O)cc43)c3ccccc3)cc2)CC1` [Compound 21, (Z)-3-(((4-(N-Methyl-2-(4-methylpiperazin-1-yl)acetamido)phenyl)amino)(phenyl)methylene)-2-oxoindoline-5-carboxylic acid], for which the “Ki ± SE” value in experiment [1] (setting [12]) was “subnanomolar”. Further, the Ki in experiment [1] (setting [8]) was 0.68 ± 0.07 nM; in experiment [1] (setting [13]) it was 0.68 ± 0.07 nM; in experiment [2] it was 4.9 ± 0.6 nM; in experiment [4], 8.6 ± 1.6 nM; in experiment [5] it was 81 ± 5.6 nM; in experiment [6] it was 85 ± 9.2 nM. In experiment [7] (100 μM ATP), this molecule registered a Ki of 19000 ± 3800 nM. Besides, the “φ = Ki Enzyme/Ki MELK” value came out at 1.00 in experiment [1] (MELK); 7.2 ± 0.2 in experiment [3]; 13 ± 0.2 in experiment [4]; 120 ± 0.1 in experiment [5]; 125 ± 0.2 in experiment [6]; 28000 ± 0.2 in experiment [7]. In experiment [1] (setting [9]), the IC50 was determined as 5.2 ± 0.5 nM. Moreover, the “difference in relative Ki compared to MELK” value in experiment [5], in experiment [6] and in experiment [7] was above 100 fold throughout.

Turning to `c1cc(OCCN2CCCCC2)cc(-c2n[nH]c3ccc(-c4nc[nH]n4)cc23)c1` [CC401, reference compound], the IC50 in experiment [1] (setting [10]) amounted to 340 ± 70 nM.

For `CCS(=O)(=O)Nc1ccc2c(c1)/C(=C(/Nc1ccc(CN3CCCCC3)cc1)c1ccccc1)C(=O)N2` [Hesperadin, reference compound], in experiment [1] (setting [10]), the IC50 worked out at 225 ± 50 nM.

In the case of `CN1CCN(CC(=O)N(C)c2ccc(N/C(=C3\C(=O)Nc4ccccc43)c3ccccc3)cc2)CC1` [Compound 16, (Z)—N-Methyl-2-(4-methylpiperazin-1-yl)-N-(4-(((2-oxoindolin-3-ylidene)(phenyl)methyl)amino)phenyl)acetamide], the “Ki ± SE” value in experiment [1] (setting [12]) is listed as “subnanomolar”. For the same molecule, the Ki in experiment [1] (setting [8]) was 0.47 nM; in experiment [1] (setting [13]), 0.47 ± 0.06 nM; in experiment [2], 4.2 ± 0.3 nM; in experiment [4], 1.7 ± 0.17 nM; in experiment [5] it was 10 ± 0.5 nM; in experiment [6], 15 ± 1.8 nM. Also, the IC50 in experiment [1] (setting [9]) was 3.6 ± 0.4 nM. The “difference in Ki compared to MELK” value in experiment [3] and in experiment [4] was 5-10 fold throughout.

For the molecule `O=C1Nc2ccc3scnc3c2/C1=C/c1cnc[nH]1` [Compound 527450, reference compound], the IC50 in experiment [1] (setting [10]) was 720 ± 100 nM.

On to `Cc1ccc([N+](=O)[O-])cc1S(=O)(=O)N(C)/N=C/c1cnc2ccc(Br)cn12` [PIK75, reference compound], for which the IC50 in experiment [1] (setting [10]) amounted to 400 ± 72 nM.

Turning to `CCN(CC)CCNC(=O)c1c(C)[nH]c(/C=C2\C(=O)Nc3ccc(Cl)cc32)c1C` [Compound 572660, reference compound], the IC50 in experiment [1] (setting [10]) stood at 760 ± 190 nM.

Turning to `CC(=O)c1ccc2c(c1)/C(=C(/Nc1ccc(N(C)C(=O)CN3CCN(C)CC3)cc1)c1ccccc1)C(=O)N2` [Compound 18, (Z)—N-(4-(((5-Acetyl-2-oxoindolin-3-ylidene)(phenyl)methyl)amino)phenyl)-N-methyl-2-(4-methylpiperazin-1-yl)acetamide], the Ki in experiment [1] (setting [8]) was 46 ± 4.6 nM. For the same molecule, in experiment [1] (setting [9]), the IC50 was 354 ± 35 nM.

Consider `NC(=O)Nc1cc(-c2cccc(F)c2)sc1C(=O)N[C@@H]1CCCNC1` [AZD776, reference compound], for which, in experiment [1] (setting [10]), the 50% inhibitory concentration (IC50) worked out at 900 ± 91 nM.

For `CCO/C(=C1\C(=O)N(C(C)=O)c2cc(C(=O)OC)ccc21)c1ccccc1` [Compound 6, Methyl (Z)-1-acetyl-3-(ethoxy(phenyl)methylene)-2-oxoindoline-6-carboxylate], the Ki in experiment [1] (setting [11]) is above 5000 nM.

Values taken from patent US10981896B2, “Indolinone derivatives as inhibitors of maternal embryonic leucine zipper kinase” (BOARD OF REGENTS, THE UNIVERSITY OF TEXAS SYSTEM, priority 2017, dated 2021).
